Source: patent US20250082674A1, “METHODS OF TREATING COPPER METABOLISM-ASSOCIATED DISEASES OR DISORDERS” (priority 2021, published 2025)
Like-named read-outs stand apart in the source and are kept apart here.

Experiments:
[1] = test system: patients with Wilson disease (WD); conditions: for Transformed CGI-I Mean (SD): scores −3 (Very much improved) to 3 (Very much worse)
Excerpt: Dose modification, if required, was made as described herein.

Excerpt for albumin levels: Across the 301, 201, and 205 studies, 102 participants had cirrhosis at baseline.

## Bis-choline tetrathiomolybdate [BC-TTM]
[1]; Week 120
  UWDRS Part II (0-40) LSM (SE) change from baseline: −1.7 (0.35)
  UWDRS Part II (0-40) Mean (SD) change from baseline: −1.4 (3.48)
  UWDRS Part III (0-175) LSM (SE) change from baseline: −5.27 (1.016)
  UWDRS Part III (0-175) Mean (SD) change from baseline: −4.08 (11.618)
  UWDRS Part III functional subscale (0-10) LSM (SE) change from baseline: −0.392 (0.0952)
  UWDRS Part III functional subscale (0-10) Mean (SD) change from baseline: −0.410 (1.1867)
  UWDRS Part III-arising from chair (0-4) LSM (SE) change from baseline: −0.1 (0.06)
  UWDRS Part III-arising from chair (0-4) Mean (SD) change from baseline: −0.2 (0.83)
  UWDRS Part III-gait (0-4) LSM (SE) change from baseline: 0.04 (0.172)
  UWDRS Part III-gait (0-4) Mean (SD) change from baseline: 0.26 (1.683)
  UWDRS Part III-handwriting (0-4) LSM (SE) change from baseline: −0.3 (0.07)
  UWDRS Part III-handwriting (0-4) Mean (SD) change from baseline: −0.5 (0.68)
  UWDRS Part III-speech (0-4) LSM (SE) change from baseline: −0.2 (0.06)
  UWDRS Part III-speech (0-4) Mean (SD) change from baseline: −0.1 (0.61)
  Transformed CGI-I Mean (SD): −0.7 (0.92)
[1]; Week 144
  CGI-S (1 to 7, 1 is normal) LSM (SE) change from baseline: −0.6 (0.12)
  CGI-S (1 to 7, 1 is normal) Mean (SD) change from baseline: −0.6 (0.78)
  UWDRS Part II (0-40) LSM (SE) change from baseline: −2.0 (0.39)
  UWDRS Part II (0-40) Mean (SD) change from baseline: −2.0 (4.68)
  UWDRS Part III (0-175) LSM (SE) change from baseline: −6.38 (1.112)
  UWDRS Part III (0-175) Mean (SD) change from baseline: −5.99 (12.215)
  UWDRS Part III functional subscale (0-10) LSM (SE) change from baseline: −0.489 (0.1046)
  UWDRS Part III functional subscale (0-10) Mean (SD) change from baseline: −0.573 (1.2617)
  UWDRS Part III-arising from chair (0-4) LSM (SE) change from baseline: −0.2 (0.07)
  UWDRS Part III-arising from chair (0-4) Mean (SD) change from baseline: −0.3 (1.03)
  UWDRS Part III-gait (0-4) LSM (SE) change from baseline: −0.25 (0.186)
  UWDRS Part III-gait (0-4) Mean (SD) change from baseline: 0.00 (1.950)
  UWDRS Part III-handwriting (0-4) LSM (SE) change from baseline: −0.3 (0.08)
  UWDRS Part III-handwriting (0-4) Mean (SD) change from baseline: −0.5 (0.59)
  UWDRS Part III-speech (0-4) LSM (SE) change from baseline: −0.3 (0.07)
  UWDRS Part III-speech (0-4) Mean (SD) change from baseline: −0.2 (0.59)
  Transformed CGI-I Mean (SD): −0.7 (0.76)
Albumin levels; Study 201 (normal 33-49), Participant 9, Baseline
  Albumin Level: 29 mg/dL
Albumin levels; Study 201 (normal 33-49), Participant 9, Week 48
  Albumin Level: 45 mg/dL
Albumin levels; Study 201 (normal 33-49), Participant 9, Week 150, early termination
  Albumin Level: 46 mg/dL
Albumin levels; Study 201 (normal 33-49), Participant 10, Baseline
  Albumin Level: 29 mg/dL
Albumin levels; Study 201 (normal 33-49), Participant 10, Week 48
  Albumin Level: 40 mg/dL
Albumin levels; Study 201 (normal 33-49), Participant 10, Week 98
  Albumin Level: 40 mg/dL
Albumin levels; Study 201 (normal 33-49), Participant 10, Week 163, early termination
  Albumin Level: 39 mg/dL
Albumin levels; Study 201 (normal 33-49), Participant 11, Baseline
  Albumin Level: 31 mg/dL
Albumin levels; Study 201 (normal 33-49), Participant 11, Week 48
  Albumin Level: 44 mg/dL
Albumin levels; Study 201 (normal 33-49), Participant 11, Week 98
  Albumin Level: 46 mg/dL
Albumin levels; Study 201 (normal 33-49), Participant 11, Week 150
  Albumin Level: 44 mg/dL
Albumin levels; Study 205 (normal 35-55), Participant 12, Baseline
  Albumin Level: 36 mg/dL
Albumin levels; Study 205 (normal 35-55), Participant 12, Day 43
  Albumin Level: 33 mg/dL
Albumin levels; Study 205 (normal 35-55), Participant 12, Day 57
  Albumin Level: 30 mg/dL
Albumin levels; Study 205 (normal 35-55), Participant 12, Day 169
  Albumin Level: 34 mg/dL
Albumin levels; Study 205 (normal 35-55), Participant 12, Day 253
  Albumin Level: 34 mg/dL
Albumin levels; Study 205 (normal 35-55), Participant 12, Day 337, early termination
  Albumin Level: 37 mg/dL
Albumin levels; Study 205 (normal 35-55), Participant 13, Baseline
  Albumin Level: 45 mg/dL
Albumin levels; Study 205 (normal 35-55), Participant 13, Day 345
  Albumin Level: 27 mg/dL
Albumin levels; Study 301 (normal 35-55), Participant 1, Baseline
  Albumin Level: 33 mg/dL
Albumin levels; Study 301 (normal 35-55), Participant 1, Week 48
  Albumin Level: 47 mg/dL
Albumin levels; Study 301 (normal 35-55), Participant 1, Week 96
  Albumin Level: 48 mg/dL
Albumin levels; Study 301 (normal 35-55), Participant 2, Baseline
  Albumin Level: 37 mg/dL
Albumin levels; Study 301 (normal 35-55), Participant 2, Week 48
  Albumin Level: 34 mg/dL
Albumin levels; Study 301 (normal 35-55), Participant 2, Week 60, early termination
  Albumin Level: 25 mg/dL
Albumin levels; Study 301 (normal 35-55), Participant 3, Baseline
  Albumin Level: 34 mg/dL
Albumin levels; Study 301 (normal 35-55), Participant 3, Week 48
  Albumin Level: 36 mg/dL
Albumin levels; Study 301 (normal 35-55), Participant 3, Week 60
  Albumin Level: 34 mg/dL
Albumin levels; Study 301 (normal 35-55), Participant 4, Baseline
  Albumin Level: 28 mg/dL
Albumin levels; Study 301 (normal 35-55), Participant 4, Week 48
  Albumin Level: 31 mg/dL
Albumin levels; Study 301 (normal 35-55), Participant 5, Baseline
  Albumin Level: 32 mg/dL
Albumin levels; Study 301 (normal 35-55), Participant 5, Week 48
  Albumin Level: 37 mg/dL
Albumin levels; Study 301 (normal 35-55), Participant 5, Week 96
  Albumin Level: 37 mg/dL
Albumin levels; Study 301 (normal 35-55), Participant 6, Baseline
  Albumin Level: 29 mg/dL
Albumin levels; Study 301 (normal 35-55), Participant 6, Week 24
  Albumin Level: 35 mg/dL
Albumin levels; Study 301 (normal 35-55), Participant 6, Week 48
  Albumin Level: 42 mg/dL
Albumin levels; Study 301 (normal 35-55), Participant 6, Week 96
  Albumin Level: 40 mg/dL
Albumin levels; Study 301 (normal 35-55), Participant 7, Baseline (Week 48 Extension Day 1)
  Albumin Level: 42 mg/dL
Albumin levels; Study 301 (normal 35-55), Participant 7, Week 8
  Albumin Level: 37 mg/dL
Albumin levels; Study 301 (normal 35-55), Participant 7, Week 24
  Albumin Level: 36 mg/dL
Albumin levels; Study 301 (normal 35-55), Participant 7, Week 30
  Albumin Level: 35 mg/dL
Albumin levels; Study 301 (normal 35-55), Participant 7, Week 48
  Albumin Level: 35 mg/dL
Albumin levels; Study 301 (normal 35-55), Participant 7, Week 144
  Albumin Level: 37 mg/dL
Albumin levels; Study 301 (normal 35-55), Participant 8, Baseline (Week 48 Extension Day 1)
  Albumin Level: 42 mg/dL
Albumin levels; Study 301 (normal 35-55), Participant 8, Week 120, early termination
  Albumin Level: 32 mg/dL
Albumin levels; of 102, Studies 301, 201, 205
  participants with cirrhosis at baseline who experienced changes in albumin levels: 13 participants
  participants with cirrhosis at baseline whose albumin levels remained stable: 89 participants
Albumin levels; of 102 participants
  participants with cirrhosis at baseline who maintained liver function (albumin levels): 87%
Albumin levels; of the 13 with changes in liver function
  cirrhotic participants whose albumin levels returned to the normal range: 7 participants
